As a reminder, the GI50 is the concentration at which growth is held to half of that of the control. By IC50 is commonly meant the midpoint of a concentration-inhibition curve.

For six molecules, GI50 and IC50 results are on record in US20260042754A1, “Substituted Bicyclic Heteroaryl Sulfonamide Derivatives for the Treatment of Cancer” (NODUS ONCOLOGY LIMITED, priority 2022, published 2026).

Like-named read-outs stand apart in the source and are kept apart here.

For test [1], the system named is NCI-H1650. The test can be described thus: Modified cell proliferation assay (CellTiter-Glo), NCI-H1650. It is filed as cell-based. The following applies: modified protocol, 384-well, 300 cells per well, 120 h, highest concentration tested 30000 nM, read-out: NCI-H1650 GI50 (high PARG dependency). In outline:
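NCI-H1650 or RMUG-S cells seeded at 300 cells/well in RPMI1640 with 10% FCS, compounds added after 24 h, then 120 h at 37 °C/5% CO2. Viability read by CellTiter-Glo luminescence; IC50 from fitted dose-response inflection point. Z′≥0.5 required.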
(ATP-based viability assays read luminescence as a measure of living cells.)

Test [2] concerns the target Recombinant His-tagged human PARG protein (Homo sapiens (Human), UniProt Q86W56). The test can be described thus: PARG enzymatic assay (TFMU-ADPr fluorescence). Format: biochemical. The following applies: 1 nM enzyme, 200 μM TFMU-ADPr, read after 30 minutes. In short, it runs like this: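 Sf21-expressed His-tagged human PARG (1 nM) preincubated 15 min with compound (8-point series, 0.5% DMSO) in pH 7.4 phosphate/KCl/β-mercaptoethanol buffer, then 200 μM TFMU-ADPr added. Fluorescence (ex 380/em 535 nm) read after 30 min; IC50 from 4-parameter logistic fit, no-enzyme control as bottom.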

Recombinant His-tagged human PARG protein, sequence (Q86W56 whole entry): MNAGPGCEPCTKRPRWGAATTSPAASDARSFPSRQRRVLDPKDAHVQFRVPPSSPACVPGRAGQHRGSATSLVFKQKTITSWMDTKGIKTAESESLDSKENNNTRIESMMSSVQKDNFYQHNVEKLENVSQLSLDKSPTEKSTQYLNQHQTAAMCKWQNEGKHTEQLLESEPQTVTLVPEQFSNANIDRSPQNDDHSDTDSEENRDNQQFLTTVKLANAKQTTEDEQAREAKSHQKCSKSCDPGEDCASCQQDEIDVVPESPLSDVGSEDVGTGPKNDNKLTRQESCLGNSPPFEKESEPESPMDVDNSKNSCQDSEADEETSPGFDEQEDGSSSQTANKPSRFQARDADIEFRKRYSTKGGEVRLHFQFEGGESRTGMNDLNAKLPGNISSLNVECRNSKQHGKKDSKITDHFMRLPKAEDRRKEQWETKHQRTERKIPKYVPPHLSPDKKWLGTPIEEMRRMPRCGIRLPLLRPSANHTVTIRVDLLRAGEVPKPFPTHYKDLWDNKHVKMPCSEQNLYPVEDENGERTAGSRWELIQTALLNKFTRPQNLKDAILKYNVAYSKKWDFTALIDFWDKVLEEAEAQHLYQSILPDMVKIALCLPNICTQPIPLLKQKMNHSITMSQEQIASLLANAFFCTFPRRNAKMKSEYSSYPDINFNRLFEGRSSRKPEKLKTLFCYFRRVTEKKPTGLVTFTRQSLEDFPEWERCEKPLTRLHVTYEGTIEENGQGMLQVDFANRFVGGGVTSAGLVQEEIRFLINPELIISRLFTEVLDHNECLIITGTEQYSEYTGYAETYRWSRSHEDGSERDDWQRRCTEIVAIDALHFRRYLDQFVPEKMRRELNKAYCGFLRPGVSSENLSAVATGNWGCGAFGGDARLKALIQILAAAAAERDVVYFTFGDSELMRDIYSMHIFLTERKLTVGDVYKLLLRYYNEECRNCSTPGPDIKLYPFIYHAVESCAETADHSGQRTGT

In the case of `Cc1nc(C)c(CO/N=c2\[nH]c3ccc(S(=O)(=O)NC4(C)CC4)cc3c(=O)n2Cc2cnn(C)c2)s1` [Example 3, 2-[(2,4-dimethylthiazol-5-yl)methoxyimino]-N-(1-methylcyclopropyl)-3-[(1-methylpyrazol-4-yl)methyl]-4-oxo-1H-quinazoline-6-sulfonamide], the GI50 in test [1] (Homo sapiens, NCI-H1650) is above 2 µM. Besides, the IC50 in test [2] was below 0.03 µM.
With `CO/N=c1\[nH]c2c(N3CCN[C@H](C)C3)cc(S(=O)(=O)NC3(C)CC3)cc2c(=O)n1Cc1cnn(C)c1` [Example 7, 2-methoxyimino-N-(1-methylcyclopropyl)-3-[(1-methylpyrazol-4-yl)methyl]-4-oxo-8-[(3R)-3-methylpiperazin-1-yl]-1H-quinazoline-6-sulfonamide], the GI50 in test [1] (Homo sapiens, NCI-H1650) is below 0.5 µM. In addition, in test [2], the half-maximal inhibitory concentration (IC50) was below 0.03 µM.
Regarding `CO/N=c1\[nH]c2ccc(S(=O)(=O)NC3(C)COC3)cc2c(=O)n1Cc1cnn(C)c1` [Example 2, 2-methoxyimino-N-(3-methyloxetan-3-yl)-3-[(1-methylpyrazol-4-yl)methyl]-4-oxo-1H-quinazoline-6-sulfonamide], the GI50 in test [1] (Homo sapiens, NCI-H1650) fell in the range of 0.5 to 2 µM. In test [2], the IC50 was 0.03 to 0.099 µM.
As to `CO/N=c1\[nH]c2c(-c3ccc(C(=O)N(C)C)cc3)cc(S(=O)(=O)NC3(C)CC3)cc2c(=O)n1Cc1cnn(C)c1` [Example 5, 4-[2-methoxyimino-6-[(1-methylcyclopropyl)sulfamoyl]-3-[(1-methylpyrazol-4-yl)methyl]-4-oxo-1H-quinazolin-8-yl]-N,N-dimethyl-benzamide], the GI50 in test [1] (Homo sapiens, NCI-H1650) was above 2 µM. For the same molecule, the IC50 in test [2] is below 0.03 µM.
On to `CO/N=c1\[nH]c2ccc(S(=O)(=O)NC3(C)CC3)cc2c(=O)n1Cc1cnc(C)s1` [Example 1, 2-methoxyimino-N-(1-methylcyclopropyl)-3-[(2-methylthiazol-5-yl)methyl]-4-oxo-1H-quinazoline-6-sulfonamide], for which the GI50 in test [1] (Homo sapiens, NCI-H1650) is 0.5 to 2 µM. In test [2], the IC50 is below 0.03 µM.
In the case of `CON=c1[nH]c2c(N3CCN(C(=O)C4(C)CC4)[C@H](C)C3)cc(S(=O)(=O)NC3(C)CC3)cc2c(=O)n1Cc1cnn(C)c1` [Example 8, 2-methoxyimino-N-(1-methylcyclopropyl)-3-[(1-methylpyrazol-4-yl)methyl]-4-oxo-8-[(3R)-3-methyl-4-(1-methylcyclopropanecarbonyl)piperazin-1-yl]-1H-quinazoline-6-sulfonamide], the GI50 in test [1] is below 0.5 µM. The IC50 in test [2] was below 0.03 µM.
